Measurements published in patent US20130210034A1, “COMPLEX PHOSPHOPROTEIN ACTIVATION PROFILES” (BECKMAN COULTER, INC., priority 2005, published 2013).

B1: FMS-Like Tyrosine Kinase 3 (FLT-3) ligand (protein, UniProt P49771 27-235, looked up)
Fms-related tyrosine kinase 3 …: TQDCSFQHSPISSDFAVKIRELSDYLLQDYPVTVASNLQDEELCGGLWRLVLAQRWMERLKTVAGSKMQGLLERVNTEIHFVTKCAFQPPPSCLRFVQTNISRLLQETSEQLVALKPWITRQNFSRCLELQCQPDSSTLPPPWSPRPLEATAPTAPQPPLLLLLLLPVGLLLLAAAWCLHWQRTRRRTPRPGEQVPPVPSPQDLLLVEH

Assays:
lymphocytes = test: Cytokine response in lymphocytes from bone marrow samples of healthy donors (Example 4); type: cell-based, human; details: lymphocytes from healthy donor bone marrow (Example 4)
Experimental: To assess the signal transduction response after growth factor simulation, 100 to 200 μL of processed samples including about 2×10^6 WBC/100 μL were added to tubes and incubated at 37° C. for 30 minutes. For inhibition experiments, cells were incubated with 100 μM U0126, 1 μg/mL rapamycin, or both for at least 20 minutes prior to cytokine addition and in all cases for 30 min prior to formaldehyde addition. […] After stimulation the cells were immediately fixed by the addition of formaldehyde to a final concentration of 4% v/v and incubated for 10 minutes at room temperature. […]
First, doublets, aggregates, and debris were excluded by gating on single cell events in the SSC-Area versus SSC-Height histogram. […] Finally, these cells were further analyzed for cytokine-mediated increases in phosphorylation by constructing gates in the single parameter histograms (for positively and negatively stained events, i.e., for the phosphorylated and non-phosphorylated forms, respectively, of each protein) for pS6 (FIGS. 4D and 4G), pERK (FIGS. 4E and 4H), and pSTAT5 (FIGS. 4F and 4I). […] Following this gating scheme, data were analyzed by calculating the area under the curve (AUC), the frequency of positive-stained cells, and the median fluorescence intensity (MFI).

pSTAT5 = test: Cytokine-stimulated phosphorylation in AML cell populations (BM or PB of AML patients); type: cell-based, human
Experimental: To assess the signal transduction response after growth factor simulation, a series comprising two sets of tubes including about 3×10^6 cells/100 μL were incubated at 37° C. for 30 minutes. After this pre-incubation period, tubes with then processes with either a stimulant or inhibitor. […] To examine the effects of protein phosphorylation inhibition, tubes were incubated with an inhibitor cocktail comprising 100 μM/100 μL UO126, 1 μM/100 μL LY294002, and 1 μM/100 μL rapamycin. One unstimulated tube receiving no stimulant or inhibitor was processed to assess basal levels of phospho-protein expression. After stimulation the cells were immediately fixed in 10% formaldehyde solution at 37° C. Pre-labeling with CD13, CD16 and CD64 antibodies was carried out 20 minutes prior to formaldehyde fixation. After fixation, one set of tubes was permeabilized without methanol for pAKT, pERK and pS6 staining and the other for 80% methanol permeabilized for pSTAT3 and pSTAT5 staining. After permeablization, the cells were washed in PBS with 2% BSA and blocked by re-suspended in 75 μL of PBS comprising 25% heat inactivated normal mouse serum, 25% normal rabbit serum. To stain cells with fluorescent conjugated monoclonal antibodies, samples were incubated on ice for 45 minutes in 100 μL of an antibody staining solution including either: 1) CD15-Pacific Orange, CD34-Phycoerythrin-Texas Red, CD117-Phycoerythrin-Cyanin 5.5, CD45-Allophycocyanin-Alexa Fluor 750 (or CD45-Pacific Orange, in which case CD15-Pacific Orange was omitted), pS6-Pacific Blue, pERK-Alexa Fluor 488 and pAKT-Alexa Fluor 647 or 2) CD15-Pacific Orange, CD34-Phycoerythrin-Texas Red, CD117-Phycoerythrin-Cyanin 5.5, CD45-Allophycocyanin-Alexa Fluor 750 or CD45-Pacific Blue, pSTAT3-Alexa Fluor 488 and pSTAT5-Phycoerythrin. The stained cells were washed twice with ice cold PBS containing 2% BSA and centrifuged at 800 g for 6 minutes at 4° C. The supernatant was discarded and cells re-suspended in 250 μL of chilled wash buffer for data acquisition. Stained cells were examined using either GALIOS flow cytometer (Beckman Coulter) or CYAN ADP (Beckman Coulter) equipped with 488 nm, 405 nm and 635 nm lasers to detect the degree of fluorescence. Data were analyzed using FCS Express (De Novo Software, CA) analysis software.
Specific phosphoprotein expression of pERK, pS6, pAKT, pSTAT5, and pSTAT3 was examined in seven discrete phenotypically defined populations based on 7-color immunophenotyping (FIG. 1). The percent of responding (phosphorprotein positive) cells for each of these populations was determined from individual single parameter histograms based on a fixed integration region set on the inhibitor treated control at about 3% positives.
Using normal BM signaling profiles of Example 1 as comparison, analysis of 14 AML samples was carried out to identify differences in signaling responses. White blood cells from BM or peripheral blood (PB) samples were obtained from 14 diagnosed AML patients undergoing routine clinical flow cytometry analysis using IRB approved protocols. The AML patients included newly diagnosed AML, AMLs arising in a background of MDS, therapy related AMLs and previously diagnosed AML post therapy. The median age of the patients at diagnosis was 51 years (range: 29-75 years) and represented 5 female and 9 male patients. The median white blood cell was 6.4 million/mL (range: 0.9-106 M/mL) and the BM morphologic blast count was an average of 46% (range: 0%-90%).
Experiments performed to assess the signal transduction response after growth factor simulation were performed as described for Example 1.

| Molecule | Phosphorylation response in lymphocytes (lymphocytes) | pSTAT5, AML Sample (pSTAT5; patient AML2 (Example 3)) | pSTAT5, AML Sample (pSTAT5; patient AML5 (Example 3)) | pSTAT5, AML Sample (pSTAT5; patient AML6 (Example 3)) | pSTAT5, AML Sample (pSTAT5; patient AML8 (Example 3)) | pSTAT5, AML Sample (pSTAT5; patient AML13 (Example 3)) | pSTAT5, AML Sample (pSTAT5; patient AML14 (Example 3)) |
| --- | --- | --- | --- | --- | --- | --- | --- |
| Stem Cell Factor [SCF] | lack of SCF's effect | – | – | – | – | – | – |
| Granulocyte-Macrophage Colony-Stimulating Factor [GM-CSF] | – | 14.6 | 2.0 | 2.5 | 10.6 | 14.6 | 4.7 |
| B1 | no response | – | – | – | – | – | – |
